Some test systems named below: SN12C renal; HOP-92 NSCLC; HS 578T breast; IGROV1 ovarian; PC-3 prostate; MDA-MB-435; SK-MEL-5 melanoma; LOX IMVI melanoma.
What all share (experiment): inhibition of tumour cell growth, NCI panel, 48 h

Where “and” joins values, the source holds several entries; their conditions need not be identical. Identical values can stand only once.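 Five compound concentrations were applied to cells in 96-well plates for 48 hours; endpoints were derived by simple linear interpolation of the resulting dose-response curve. At the GI50, growth is halved. At the TGI there is no net growth.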 Where a SMILES comes first, the peptide text is derived from it. Bridges are numbered along the chain shown (N, C = ends). [ ]: non-standard residue; d: D form. aThr = C[C@H](O)[C@H](N)C(=O)O Some results are limits rather than exact numbers.

Experimental findings from PubChem BioAssay (NCI) are described below.

As for `COCCOC1=C(Cl)C(=O)c2ccccc2C1=O`, the GI50 in the assay with SN12C renal was 3.91 µM; in the assay with HOP-92 NSCLC, 1.41 µM; in the assay on HS 578T breast, 2.94 µM; in the assay with IGROV1 ovarian, 2.62 µM; with PC-3 prostate, 2.18 µM; in the assay on MDA-MB-435, 3.08 µM. Besides, the values for the GI50 in the assay with SK-MEL-5 melanoma and in the assay on LOX IMVI melanoma were 1.82 µM and 1.75 µM, respectively. In addition, the TGI with SN12C renal turned out to be 16.5 µM; in the assay with HOP-92 NSCLC, 2.93 µM; in the assay with HS 578T breast it was 12.7 µM; in the assay on IGROV1 ovarian, 6.44 µM; in the assay on PC-3 prostate, 5.55 µM; with MDA-MB-435, 10.4 µM. The TGI came out at 3.51 µM with SK-MEL-5 melanoma and 3.31 µM with LOX IMVI melanoma.
Turning to `CCN(CC)c1ccc2nc3ccc(=[N+](CC)CC)cc-3oc2c1`, the GI50 was 0.153 µM with SN12C renal; 1.31 µM with HOP-92 NSCLC; 1.37 µM with HS 578T breast; 0.107 µM in the assay with IGROV1 ovarian; 0.0934 µM in the assay with PC-3 prostate; 0.401 µM in the assay on MDA-MB-435. The GI50 with SK-MEL-5 melanoma was 0.162 µM; in the assay with LOX IMVI melanoma it was 0.11 µM. Moreover, the TGI in the assay with SN12C renal was 15.2 µM; with HOP-92 NSCLC, 5.14 µM; with HS 578T breast it was 5.94 µM; with IGROV1 ovarian, 0.862 µM; in the assay on PC-3 prostate, over 100 µM; with MDA-MB-435 it was 1.89 µM. For the same compound, the TGI in the assay on SK-MEL-5 melanoma is 1.17 µM; with LOX IMVI melanoma it was 1.59 µM.
On to `CN1CCN(c2c(F)cc(NC3=C(Cl)C(=O)c4ncccc4C3=O)cc2F)CC1`, for which the GI50 with SN12C renal is 3.22 µM; in the assay with HOP-92 NSCLC it was 1.55 µM; in the assay with HS 578T breast, 11.2 µM; with IGROV1 ovarian, 2.92 µM; in the assay with PC-3 prostate it was 5.87 µM; in the assay with MDA-MB-435, 1.84 µM. Besides, the results for the GI50 in the assay on SK-MEL-5 melanoma and with LOX IMVI melanoma were 15.2 µM and 2.15 µM, respectively. Also, the TGI in the assay with SN12C renal amounted to 13.2 µM; in the assay on HOP-92 NSCLC it was 3.22 µM; with HS 578T breast it was 56.4 µM; in the assay on IGROV1 ovarian, 11.5 µM; in the assay on PC-3 prostate, 21.1 µM; in the assay with MDA-MB-435 it was 3.62 µM. Moreover, the values for the TGI in the assay with SK-MEL-5 melanoma and in the assay on LOX IMVI melanoma were 28.8 µM and 5.17 µM, respectively.
For `COc1cc2nnc3c4cccnc4[nH]c3c2cc1OC`, the GI50 with SN12C renal is 1.9 µM and 2.27 µM; in the assay with HOP-92 NSCLC, 0.771 µM and 0.212 µM; with HS 578T breast it was 4.21 µM and 3.7 µM; in the assay on IGROV1 ovarian it was 1.02 µM and 1.73 µM; in the assay with MDA-MB-435 it was 5.66 µM and 2.23 µM; in the assay on SK-MEL-5 melanoma, 8.57 µM and 7.33 µM. Besides, the GI50 with LOX IMVI melanoma was 1.43 µM and 1.41 µM. Moreover, the TGI in the assay on SN12C renal is 19.2 µM and 8.47 µM; in the assay with HS 578T breast it was 50 µM and 82.7 µM; in the assay with IGROV1 ovarian, 19.4 µM and 5.83 µM; in the assay with PC-3 prostate, 50 µM and > 100 µM; in the assay with MDA-MB-435, 38.7 µM and 6.96 µM; in the assay with SK-MEL-5 melanoma, 21.2 µM and 22.2 µM. In addition, in the assay on LOX IMVI melanoma, the TGI was 15.7 µM and 4.69 µM.
As for `CCOC(=O)/C(=C\c1cccc(C)c1)C(C)=O`, the TGI in the assay with SN12C renal worked out at 41.7 µM; with HOP-92 NSCLC it was 34.8 µM; in the assay on HS 578T breast, 51.3 µM; with IGROV1 ovarian it was 40.8 µM; in the assay on PC-3 prostate it was 28.3 µM; with MDA-MB-435 it was 45.4 µM. The TGI with SK-MEL-5 melanoma stood at 32 µM; with LOX IMVI melanoma it was 26.5 µM.
For `Cc1cccc(Cn2cc(CO)c3cnccc32)c1`, the GI50 in the assay with SN12C renal was over 100 µM; in the assay with HOP-92 NSCLC, 7.88 µM; in the assay on HS 578T breast, over 100 µM; in the assay with IGROV1 ovarian it was 44.8 µM; in the assay on PC-3 prostate, 28.2 µM; in the assay with MDA-MB-435 it was 49.7 µM. The GI50 in the assay with SK-MEL-5 melanoma was 24.1 µM; in the assay on LOX IMVI melanoma it was 67.3 µM. Moreover, the TGI with SN12C renal is over 100 µM; with HOP-92 NSCLC, 79.4 µM; with HS 578T breast it was over 100 µM; in the assay on IGROV1 ovarian it was over 100 µM; with PC-3 prostate, over 100 µM; with MDA-MB-435 it was over 100 µM. Moreover, the TGI in the assay with SK-MEL-5 melanoma and with LOX IMVI melanoma was over 100 µM each time.
With `COC12C(COC(=O)NCCO)C3=C(C(=O)C(C)=C(N)C3=O)N1CC1NC12` (stereo unspecified), the GI50 in the assay on SN12C renal was 34.4 µM; in the assay on HOP-92 NSCLC it was 76.3 µM; with IGROV1 ovarian, 39.8 µM; in the assay with SK-MEL-5 melanoma, 23.9 µM; with LOX IMVI melanoma it was 22.2 µM. Moreover, the TGI is over 264 µM in the assay with SN12C renal; 222 µM with HOP-92 NSCLC; over 264 µM in the assay on HS 578T breast; 116 µM in the assay with IGROV1 ovarian; 248 µM in the assay with PC-3 prostate; over 264 µM with MDA-MB-435. The TGI with SK-MEL-5 melanoma is 45 µM and 58.2 µM; with LOX IMVI melanoma it was 64.7 µM.
As to `Nc1nccc(-c2c(-c3ccc(F)cc3)nn3cc(C(F)(F)F)ccc23)n1`, the GI50 in the assay on SN12C renal is over 25 µM; with HOP-92 NSCLC, 5.75 µM; in the assay on HS 578T breast it was over 25 µM; in the assay on IGROV1 ovarian it was over 25 µM; in the assay on PC-3 prostate it was over 25 µM; in the assay with MDA-MB-435 it was over 25 µM. The GI50 with SK-MEL-5 melanoma and in the assay with LOX IMVI melanoma was over 25 µM each time. For the same compound, the TGI with SN12C renal, with HOP-92 NSCLC, in the assay on HS 578T breast, with IGROV1 ovarian, in the assay with PC-3 prostate and with MDA-MB-435 was over 25 µM throughout. The TGI in the assay on SK-MEL-5 melanoma and with LOX IMVI melanoma was over 25 µM throughout.
As for `CC(C)C[C@@H]1NC(=O)[C@@H]2CCCN2C(=O)[C@@H]2CCCN2C(=O)[C@H](CC(C)C)NC(=O)[C@H](CO)NC(=O)[C@H](CCCCN)NC(=O)[C@H]([C@H](C)O)NC(=O)[C@@H]2CSSC[C@@H](NC1=O)C(=O)N[C@@H](Cc1ccccc1)C(=O)N1CCC[C@H]1C(=O)N[C@@H](CC(=O)O)C(=O)NCC(=O)N[C@@H](CCCN=C(N)N)C(=O)N2` (cyclo(C[aThr]KSLPPL[dC]FPDGR); disulfide 1-9), the GI50 was over 50 µM with SN12C renal; over 50 µM with HOP-92 NSCLC; over 50 µM with HS 578T breast; over 46.4 µM with IGROV1 ovarian; over 50 µM in the assay with PC-3 prostate; over 50 µM with MDA-MB-435. In addition, the GI50 with SK-MEL-5 melanoma and with LOX IMVI melanoma was over 50 µM in each case. In addition, the TGI in the assay with SN12C renal, in the assay on HOP-92 NSCLC, with HS 578T breast, with IGROV1 ovarian, in the assay on PC-3 prostate and in the assay on MDA-MB-435 was over 50 µM in each case. In addition, the TGI with SK-MEL-5 melanoma and in the assay on LOX IMVI melanoma was over 50 µM in each case.
